According to US10668049B2, “Methods of treating cognitive decline with transforming growth factor beta inhibitors” (The Regents of the University of California, priority 2008, dated 2020):

Legend:
[1] = system: neuronal-enriched culture; test: RT-PCR of neuronal-enriched cultures exposed to albumin; assay type: cell-based, rat; conditions: albumin for 24 h
Method: Primary neuronal cortical cultures were prepared from embryonic day 18 rats as reported previously (Kaufer et al., 2004). Briefly, cells were dissociated with a papain solution for 20 min at 37° C., After the removal of the papain solution, the tissue was resuspended in growth medium [MEM with Earle's salts containing 2.5% B27 supplement, 0.1% mito serum extender, 5% fetal bovine serum (FBS), 20 mM glucose, and 5 mM L-glutamine] and dissociated by mechanical trituration. The cells were plated, and after 4 h in vitro the cell culture medium was replaced with neurobasal medium supplemented with 2% B27 supplement and 0.5 mM GlutaMAX™. The cells were maintained in 5% CO2 at 37° C. After 7 days in vitro, cytosine arabinofuranoside (AraC) (10 μM) was added to the cultures. After 10 days in vitro, the cells were incubated with 0.4 mM albumin for 24 h at 37° C. For astrocytic cultures, astrocytcs were isolated from the cerebral cortices of PO rat pups. Cells were dissociated with papain and mechanical trituration. The cells were cultured in high-glucose Dulbecco's modified eagle medium supplemented with 10% FBS and 1% penicillin/streptomycin at 37° C. and in 5% C02 (medium was replaced every 3-4 days). After 10 days in vitro, the culture medium was replaced with serum-free high-glucose DMEM (containing 1% penicillin/streptomycin) for 18 h. The cells were then incubated in scrum-free medium containing 0.4 mM albumin for 24 h at 37° C. […]
Total RNA was isolated from the somatosensory cortices of animals treated with DOC or albumin (24 h treatment; n=3) or from primary cultures (astrocytic and neuronal, n=3 independent experiments). Expression levels were determined by real-time reverse transcriptase-PCR (RT-PCR) with an iQ5 detection system (Bio-Rad, Hercules, Calif.) using gene-specific primer pairs. RT-PCR data were analyzed using the PCR Miner program (Zhao and Fernald, 2005), and fold changes in gene expression were represented relative to sham-operated controls (in-vivo samples) or serum-deprived controls (in-vitro, samples). […]

TGF-βRII = target: T1, TGF-βRII (Rattus norvegicus, UniProt P38438); test: Albumin and TGF-βRII co-immunoprecipitation in cortical lysates; assay type: binding; conditions: cortical lysate pre-incubated with albumin
T1 construct: brains were isolated from adult Wistar rats, dissected in cold saline solution and lysed in RIPA buffer; from tissue; host or cells: adult Wistar rat brain cortex lysate (RIPA buffer)
T1 sequence (P38438 24-567): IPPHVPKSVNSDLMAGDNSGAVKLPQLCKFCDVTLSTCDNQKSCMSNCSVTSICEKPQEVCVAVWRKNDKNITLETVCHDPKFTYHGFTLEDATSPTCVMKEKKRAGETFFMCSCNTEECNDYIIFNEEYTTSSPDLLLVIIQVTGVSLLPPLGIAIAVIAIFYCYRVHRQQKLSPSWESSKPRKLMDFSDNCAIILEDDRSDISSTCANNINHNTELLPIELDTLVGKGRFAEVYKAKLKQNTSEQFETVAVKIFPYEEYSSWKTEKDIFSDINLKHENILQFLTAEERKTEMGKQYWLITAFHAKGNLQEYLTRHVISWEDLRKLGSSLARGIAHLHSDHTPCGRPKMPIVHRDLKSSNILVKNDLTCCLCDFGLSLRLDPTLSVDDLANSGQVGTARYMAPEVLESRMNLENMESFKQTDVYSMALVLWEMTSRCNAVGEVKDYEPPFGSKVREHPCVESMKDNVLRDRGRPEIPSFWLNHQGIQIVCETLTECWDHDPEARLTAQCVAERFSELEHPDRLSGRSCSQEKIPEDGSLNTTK
Method: To prepare cortical lysates, brains were isolated from adult Wistar rats, dissected in cold saline solution and lysed in RIPA buffer. BSA (3 μg) was added to lysates to approximately match the amount of precipitating anti-albumin antibodies. Immunoprecipitation was performed using the Catch and Release® v2.0 Reversible Immunoprecipitation System (Upstate, Charlottesville, Va.) with the following modifications to the standard protocol: the starting amount of protein was increased to 1,500 μg and the incubation time with precipitating antibodies was increased to 90 minutes. […]
The immunoprecipitated samples were separated with SDS-PAGE and transferred onto a nitrocellulose membrane. […] TGF-βRII was detected with a rabbit anti-TGF-βRII antibody (Upstate) and an AP-conjugated donkey anti-rabbit IgG secondary antibody (Jackson ImmunoResearch Laboratories, West Grove, Pa.). […]
To determine whether albumin binds to TGF-β receptors, co-immunoprecipitation using antibodies against albumin or TGF-βRII was performed on cortical lysate samples treated with albumin. An expected hand corresponding to TGF-βRII was detected in samples immunoprecipitated with the TGF-βRII antibody. More importantly, this band was also detected in samples pre-incubated with albumin when immunoprecipitated with the albumin antibody and probed for TGF-βRII (FIG. 2a). […]

## albumin: bovine serum albumin, used to induce epileptogenesis
[1]
  GS mRNA levels: downregulation
  Gjb6 mRNA levels: upregulation
  expression levels of the same transcripts (except GS and Gjb6): No significant differences
TGF-βRII
  interaction with TGF-βRII (co-immunoprecipitation): direct interaction
